From patent US8119647B2, “Fused pyrimidineone compounds as TRPV3 modulators” (Glenmark Pharmaceuticals S.A., priority 2008, dated 2012)
Read-outs that look alike come from different tables or passages of the source.

Molecular target: T1, Human TRPV3 (Homo sapiens, UniProt Q8NET8)
T1 construct: expressed in transfected cells; host or cells: CHO cells (G-418 selection)
T1 sequence (Q8NET8 1-790): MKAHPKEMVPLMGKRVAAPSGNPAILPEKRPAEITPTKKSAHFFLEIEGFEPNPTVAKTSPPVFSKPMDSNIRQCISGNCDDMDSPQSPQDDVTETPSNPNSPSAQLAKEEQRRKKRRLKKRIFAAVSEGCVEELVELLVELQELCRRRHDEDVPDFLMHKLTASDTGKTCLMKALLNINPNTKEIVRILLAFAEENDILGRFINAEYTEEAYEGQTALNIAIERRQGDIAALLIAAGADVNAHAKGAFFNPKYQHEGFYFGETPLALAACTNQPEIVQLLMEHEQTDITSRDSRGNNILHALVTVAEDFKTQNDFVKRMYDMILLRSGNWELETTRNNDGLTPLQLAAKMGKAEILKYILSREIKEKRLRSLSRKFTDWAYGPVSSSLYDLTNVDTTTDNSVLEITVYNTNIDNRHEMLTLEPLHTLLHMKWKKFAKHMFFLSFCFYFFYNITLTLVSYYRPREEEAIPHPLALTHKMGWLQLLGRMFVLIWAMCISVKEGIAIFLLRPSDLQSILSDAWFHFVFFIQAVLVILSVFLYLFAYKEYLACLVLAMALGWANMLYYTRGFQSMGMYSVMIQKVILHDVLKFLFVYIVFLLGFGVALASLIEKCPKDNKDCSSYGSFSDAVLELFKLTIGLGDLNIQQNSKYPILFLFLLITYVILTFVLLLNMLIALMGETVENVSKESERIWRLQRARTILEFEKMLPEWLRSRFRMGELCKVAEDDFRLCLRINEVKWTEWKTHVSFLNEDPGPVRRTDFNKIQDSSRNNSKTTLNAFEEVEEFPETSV
Assay: Screening for TRPV3 antagonist using the 45Calcium uptake assay (inhibition of 2-APB induced cellular uptake of radioactive calcium)
Type: cell-based
Details: for inhibition at 1 µM / Percentage inhibition at 1.0 μM: 1.0 μM test compound; for inhibition at 1 µM: read-out: Percentage inhibition at 1.0 μM; for inhibition at 10 µM: read-out: Percentage inhibition at 10.0 μM; for IC50: class symbols
Text: The illustrative examples of the present invention are screened for TRPV3 activity according to a modified procedure described in Tóth, A., Kedei, N., Wang, Y. and Blumberg, P. M. Life Sciences (2003), 73, 487-498. The screening of the compounds can be carried out by other methods and procedures known to a person skilled in the art. Such screening methods may be found in (a) Hu, H.-Z. et al. J. Biol. Chem. (2004), 279, 35741-35747; (b) Smith, G. D. et al. Nature (2002), 418, 186-190; (c) Peier, A. M. et al. Science (2002), 296, 2046-2049.
Screening for TRPV3 Antagonist Using the ^45Calcium Uptake Assay:
The inhibition of TRPV3 receptor activation was followed as inhibition of 2-aminoethoxydiphenylborate (2-APB) induced cellular uptake of radioactive calcium. Test compounds were dissolved in dimethyl sulfoxide (DMSO) to prepare 20 mM stock solution and then diluted using plain medium with DMEM/F-12 containing 1.8 mM CaCl2 to get desired concentration. Final concentration of DMSO in the reaction was 0.5% (v/v). Human TRPV3 expressing CHO cells were grown in DMEM/F-12 medium with 10% FBS, 1% penicillin-streptomycin solution, 400 μg/ml of G-418. Cells were seeded 24 h prior to the assay in 96 well plates so as to get ˜50,000 cells per well on the day of experiment. Cells were treated with test compounds for 10 minutes followed by addition of 2-APB at a final concentration of 500 μM and 5 μCi/ml ^45Ca^+2 for 4 minutes. Cells were washed and lysed using buffer containing 1% Triton X-100, 0.1% deoxycholate and 0.1% SDS. Radioactivity in the lysate was measured in Packardt Top count after addition of liquid scintillant. Concentration response curves were plotted as a % of maximal response obtained in the absence of test antagonist. IC50 value was calculated from concentration response curve by nonlinear regression analysis using GraphPad PRISM software.
Percentage inhibition at concentrations of 1.0 μM and 10.0 μM are given in the table along with IC50 (nM) values for selected examples.

[1] = human TRPV3 expressing CHO cells, 2-APB 500 μM
[2] = 10.0 μM test compound, human TRPV3 expressing CHO cells, 2-APB 500 μM

What does the source list for `COc1cccc(/C=C/c2nc3sccn3c(=O)c2-c2ccc(C#N)cc2)c1OCC1CC1` [Example 16, 4-{7-[(E)-2-[2-(Cyclopropylmethoxy)-3-methoxyphenyl]-1-ethenyl}-5-oxo-5H-[1,3]thiazolo[3,2-a]pyrimidin-6-yl}benzonitrile]?
inhibition at 1 µM [1]: 59.3%; inhibition at 10 µM [2]: 91.7%; IC50 [1]: 500 to 1000 nM

With `O=c1c(-c2ccc(C(F)(F)F)cc2)c(/C=C/c2ccccc2OCC2CC2)nc2sccn12` [Example 24] as the molecule, how does the inhibition at 1 µM [1] read?
The inhibition at 1 µM was 36.3%.

What about the inhibition at 10 µM [2] of the same molecule?
The inhibition at 10 µM was 67.4%.

`COc1cccc(/C=C/c2nc3sccn3c(=O)c2-c2ccc(OC(F)(F)F)cc2)c1OCC1CCCCC1` [Example 71, 7-[(E)-2-(2-Cyclohexylmethoxy-3-methoxyphenyl)-1-ethenyl]-6-[4-(trifluoromethoxy)phenyl]-5H-[1,3]thiazolo[3,2-a]pyrimidin-5-one] was tested. Which inhibition at 1 µM [1] did it give?
The inhibition at 1 µM was 61.1%.

What about the inhibition at 10 µM [2] of the same molecule?
Its inhibition at 10 µM is 80.8%.

For `COc1cccc(/C=C/c2nc3sccn3c(=O)c2-c2ccc(C#N)cc2)c1OCc1ccccn1` [Example 21], which “Percentage inhibition at 10.0 μM” value is on record?
The value was 11.60%.

And the “Percentage inhibition at 1.0 μM” value [1]?
The value was 14.88%.

`COc1cccc(/C=C/c2nc3sc(C)c(C)n3c(=O)c2-c2ccc(OC(F)(F)F)cc2)c1OCC1CC1` [Example 77, 7-[(E)-2-(2-Cyclopropylmethoxy-3-methoxyphenyl)-1-ethenyl]-2,3-dimethyl-6-[4-(trifluoromethoxy)phenyl]-5H-[1,3]thiazolo[3,2-a]pyrimidin-5-one] was tested. Which inhibition at 1 µM [1] did it give?
Its inhibition at 1 µM is 24.7%.

What about the inhibition at 10 µM [2] of the same molecule?
The inhibition at 10 µM was 44%.

For `COc1cccc(/C=C/c2nc3sccn3c(=O)c2-c2ccc(C(F)(F)F)cc2)c1OCC1CC1` [Example 33, {7-[(E)-2-(2-Cyclopropylmethoxy)-3-methoxyphenyl]-1-ethenyl]-6-[4-(trifluoromethyl)phenyl]-5H-[1,3]thiazolo[3,2-a]pyrimidin-5-one], which inhibition at 1 µM [1] is on record?
Its inhibition at 1 µM is 85.3%.

And the inhibition at 10 µM [2]?
The inhibition at 10 µM was 97.4%.

And the IC50 [1]?
Its IC50 is under 250 nM.

Which inhibition at 1 µM [1] does the source give for `COc1cccc(/C=C/c2nc3sccn3c(=O)c2-c2ccc(C(F)(F)F)cc2)c1OCC1CCC1` [Example 34, 7-[(E)-2-(2-Cyclobutylmethoxy-3-methoxyphenyl)-1-ethenyl]-6-[4-(trifluoromethyl)phenyl]-5H-[1,3]thiazolo[3,2-a]pyrimidin-5-one] here?
The inhibition at 1 µM was 43.1%.

And the inhibition at 10 µM [2]?
The inhibition at 10 µM was 78.4%.

How did the inhibition at 1 µM [1] turn out when `CCCOc1cccc(/C=C/c2nc3sccn3c(=O)c2-c2ccc(OC(F)(F)F)cc2)c1OCC1CC1` [Example 66, 7-{(E)-2-[2-(Cyclopropylmethoxy)-3-propoxyphenyl}-1-ethenyl]-6-(4-trifluoromethoxy-phenyl)-5H-[1,3]thiazolo[3,2-a]pyrimidin-5-one] was run?
The inhibition at 1 µM was 23.4%.

What about the inhibition at 10 µM [2] of the same molecule?
The inhibition at 10 µM was 34.1%.

What does the source list for `COc1cccc(/C=C/c2nc3sccn3c(=O)c2-c2ccc(C(F)(F)F)cc2)c1OCc1ccccn1` [Example 36]?
Percentage inhibition at 1.0 μM [1]: 11.2%; Percentage inhibition at 10.0 μM [2]: 0.0%

For `COc1cccc(/C=C/c2nc3sc(C)cn3c(=O)c2-c2ccc(OC(F)(F)F)cc2)c1OCC1CC1` [Example 75, 7-[(E)-2-(2-Cyclopropylmethoxy-3-methoxyphenyl)-1-ethenyl]-2-methyl-6-[4-(trifluoromethoxy)phenyl]-5H-[1,3]thiazolo[3,2-a]pyrimidin-5-one], which inhibition at 1 µM [1] is on record?
The inhibition at 1 µM was 86.3%.

What about the inhibition at 10 µM [2] of the same molecule?
Its inhibition at 10 µM is 90.4%.

What about the IC50 [1] of the same molecule?
Its IC50 is under 250 nM.

What does the source list for `COc1cccc(/C=C/c2nc3sccn3c(=O)c2-c2ccc(C(C)(C)C)cc2)c1OCC1CC1` [Example 4]?
inhibition at 1 µM [1]: 66.5%; inhibition at 10 µM [2]: 84.7%; IC50 [1]: 250 to 500 nM

`CCOCCOc1c(/C=C/c2nc3sccn3c(=O)c2-c2ccc(OC(F)(F)F)cc2)cccc1OC` [Example 53, 7-[(E)-2-{2-(2-Ethoxyethoxy)-3-methoxyphenyl}-1-ethenyl]-6-[4-(trifluoromethoxy)phenyl]-5H-[1,3]thiazolo[3,2-a]pyrimidin-5-one] was tested. Which inhibition at 1 µM [1] did it give?
The inhibition at 1 µM was 89.9%.

What about the inhibition at 10 µM [2] of the same molecule?
Its inhibition at 10 µM is 95.9%.

What about the IC50 [1] of the same molecule?
Its IC50 is under 250 nM.

With `COCCOc1c(/C=C/c2nc3sc4ccccc4n3c(=O)c2-c2ccc(OC(F)(F)F)cc2)cccc1OC` [Example 96, 2-{(E)-2-[3-Methoxy-2-(2-methoxyethoxy)phenyl]-1-ethenyl}-3-(4-trifluoromethoxy-phenyl)-4H-benzo[4,5][1,3]thiazolo-[3,2-a]pyrimidin-4-one] as the molecule, how does the inhibition at 1 µM [1] read?
The inhibition at 1 µM was 24.8%.

What about the inhibition at 10 µM [2] of the same molecule?
Its inhibition at 10 µM is 67.7%.

For `COc1cccc(/C=C/c2nc3sc(Cl)cn3c(=O)c2-c2ccc(OC(F)(F)F)cc2)c1OCC(C)(C)C` [Example 78, 2-Chloro-7-[(E)-2-(2-(2,2-dimethylpropoxy)-3-methoxyphenyl)vinyl]-6-[4-(trifluoromethoxy)phenyl]-5H-[1,3]thiazolo[3,2-a]pyrimidin-5-one], which inhibition at 1 µM [1] is on record?
Its inhibition at 1 µM is 27.1%.

And the inhibition at 10 µM [2]?
Its inhibition at 10 µM is 47.5%.

Which results are given for `CCOCCOc1c(/C=C/c2nc3sccn3c(=O)c2-c2ccc(C(F)(F)F)cc2)cccc1OC` [Example 32, {7-[(E)-2-(2-Ethoxyethoxy)-3-methoxy)phenyl-1-ethenyl]-6-[4-(trifluoromethyl)phenyl]-5H-[1,3]thiazolo[3,2-a]pyrimidin-5-one]?
Percentage inhibition at 1.0 μM [1]: 89.3%; Percentage inhibition at 10.0 μM [2]: 97.7%; IC50 [1]: 250 to 500 nM

How did the inhibition at 1 µM [1] turn out when `CCCOc1c(/C=C/c2nc3sccn3c(=O)c2-c2ccc(OC(F)(F)F)cc2)cccc1OC` [Example 54, 7-[(E)-2-(3-Methoxy-2-propoxyphenyl)-1-ethenyl]-6-[4-(trifluoromethoxy)phenyl]-5H-[1,3]thiazolo[3,2-a]pyrimidin-5-one] was run?
The inhibition at 1 µM was 72.8%.

And the inhibition at 10 µM [2]?
Its inhibition at 10 µM is 95.3%.

What about the IC50 [1] of the same molecule?
The IC50 was under 250 nM.

Which inhibition at 1 µM [1] does the source give for `O=c1c(-c2ccc(OC(F)(F)F)cc2)c(/C=C/c2cccc(F)c2OCC2CC2)nc2sccn12` [Example 49, 7-[(E)-2-(2-Cyclopropylmethoxy-3-fluorophenyl)-1-ethenyl]-6-[4-(trifluoromethoxy)-phenyl]-5H-[1,3]thiazolo[3,2-a]pyrimidin-5-one] here?
Its inhibition at 1 µM is 41.3%.

And the inhibition at 10 µM [2]?
The inhibition at 10 µM was 77.3%.

With “7-[(E)-2-(4-Chlorophenyl)vinyl]-6-phenyl-5H-[1,3]thiazolo[3,2-a]pyrimidin-5-one [Example 1]” as the molecule, how does the “Percentage inhibition at 1.0 μM” value [1] read?
The value was 6.9%.

What about the “Percentage inhibition at 10.0 μM” value [2] of the same molecule?
The value was 14.4%.

What does the source list for `COc1cccc(/C=C/c2nc3sccn3c(=O)c2-c2ccc(C#N)cc2)c1OC1CCCC1` [Example 18, 4-{7-[(E)-2-(2-Cyclopentyloxy-3-methoxy)phenyl-1-ethenyl]-5-oxo-5H-[1,3]thiazolo-[3,2-a]pyrimidin-6-yl}benzonitrile]?
Percentage inhibition at 1.0 μM [1]: 85.0%; Percentage inhibition at 10.0 μM [2]: 94.2%; IC50 [1]: < 250 nM

How did the inhibition at 1 µM [1] turn out when `COc1cccc(/C=C/c2nc3sccn3c(=O)c2-c2ccc(C(F)(F)F)cc2)c1OC1CCCC1` [Example 35, 7-[(E)-2-(2-Cyclopentyloxy-3-methoxyphenyl)-1-ethenyl]-6-[4-(trifluoromethyl)phenyl]-5H-[1,3]thiazolo[3,2-a]pyrimidin-5-one] was run?
Its inhibition at 1 µM is 29.4%.

And the inhibition at 10 µM [2]?
The inhibition at 10 µM was 68.5%.

Which inhibition at 1 µM [1] does the source give for `O=c1c(-c2ccc(C(F)(F)F)cc2)c(/C=C/c2cccnc2)nc2sccn12` [Example 39, 7-[(E)-2-Pyridin-3-ylvinyl]-6-[4-(trifluoromethyl)phenyl]-5H-[1,3]thiazolo[3,2-a]pyrimidin-5-one] here?
The inhibition at 1 µM was 4.11%.

And the inhibition at 10 µM [2]?
Its inhibition at 10 µM is 15.2%.

Which “Percentage inhibition at 1.0 μM” value [1] does the source give for `COc1cccc(/C=C/c2nc3sc4ccccc4n3c(=O)c2-c2ccc(C#N)cc2)c1OCC1CCC1` [Example 89] here?
Its value is 26.90%.

What about the “Percentage inhibition at 10.0 μM” value [2] of the same molecule?
The value was 57.53%.
